Measurements: US20230233584A1, “EXTENDED RELEASE 5-HT RECEPTOR AGONISTS FOR NEUROLOGICAL CONDITIONS” (Diamond Therapeutics Inc., priority 2020, published 2023)
“Also recorded” adds a separate entry of the source.

System: Long Evans rats
Experiment: 5-CSRTT during 12-day minipump (extended release) dosing of poor performing rats
Format: in vivo
Conditions: for increase in premature behaviors: minipump (ER dosing)
Method: The 5-choice serial reaction time task (5-CSRTT) was used to measure attentional performance in rodents. The test design involves training animals to respond to a brief visual stimulus presented unpredictably in one of five locations. Once trained to stable performance levels, the effects of experimental manipulations on response speed and choice accuracy were measured and each are related to attentional performance. The test was used to examine aspects of response control with responding prior to stimulus onset, i.e., a premature response, becoming a measure of motor impulsivity. The test is adaptable to task modification. Variations to stimulus duration (SD, 0.03-1 s duration) and frequency of stimulus presentation (2-10 s), amongst others have become commonly used to tax performance.
72 male Long Evans rats (source: Charles River, St. Constant, QE) were trained to asymptotic performance in the 5-CSRTT over a period of approximately 2 months. The rats were trained to final stimulus duration (SD) of 0.75 s, 5 s inter-trial interval (ITI), 5 s limited hold (LH), 100 trials per session. The rats were singly housed and food restricted to ˜20 g food/day throughout the study.
While the target performance levels under these conditions was in the range of >80% accuracy, <20% omissions, individual rats show different performance levels based on attentional accuracy or measures of impulsive action. The selection phase involves selecting the “worst” 40 rats based on both attentional performance (lowest performance based on accuracy measures of % correct/% hit) and/or impulsive action ([…] levels of premature responses noted at an extended 10 s ITI schedule and also baseline testing).
During the training period, 72 rats were trained on the 5-CSRTT, and the 40 worst performers. The 40 animals with the “worst” attentional performance (lowest performance based on accuracy measures of % correct, omissions and response speed) and impulsive action (PREM responses) were selected for the experiment. These 40 poor performing rats were allocated into one of two cohorts, with N=16 rats implanted with a vehicle (saline, Group A) minipumps and N=24 implanted with minipumps primed with psilocybin.
For 12 days following pump implantation surgery, rats were assessed for performance in the 5-CSRTT under (A) standard 5-CSRTT protocol (5 s ITI, 0.75 s SD, 100 trials) on days 1-4, 6-8, 10-11 (i.e. 9 days total run under this condition), and (B) the more difficult conditions of 10 s ITI, 0.3 s SD, 100 trials. The standard conditions were tested on days 1-4, 6-8, 10-11, and the more difficult conditions were tested on post-implant days 5, 9 and 12 (i.e. 3 days total run under this condition).
The result was significant on D2 (P<0.05). In FIG. 8A, B/L refers to ‘baseline’ conditions of 5 s ITI, 0.75 SD (calculated by taking the mean of the days immediately prior to and immediately following the test day). For example, B/L1 is the mean of performance on the days before and after D1 (since D1 is test day 5, B/L is mean of days 4 and 6).

CN(C)CCc1c[nH]c2cccc(OP(=O)(O)O)c12 [psilocybin, 4-phosphoryloxy-N,N-dimethyltryptamine]
mean performance on Days 1-3 (10 s ITI challenge days, vs. vehicle, p=0.03): significantly improved | % correct / performance (10 s ITI, Challenge Day 2 (D2, test day 9), vs vehicle): significant improvement; also recorded: significant (P=0.01) increase | % correct responses (challenging conditions 10 s ITI, 0.3 s SD, test days 5, 9 and 12, vs vehicle): performed better than vehicle treated animals | increase in premature behaviors (more taxing/challenge conditions 10 s ITI, 0.3 s SD): do not have an increase in premature behaviors | increase in premature behaviors (standard conditions): do not have an increase in premature behaviors | correct attempts (minipump, standard test conditions, over a period of time): does not increase the number of correct attempts; also recorded: did not show that psilocybin caused an increase in correct attempts
